Experimental data from paper PMC6199744, “Development of Chemical Proteomics for the Folateome and Analysis of the Kinetoplastid Folateome” (ACS Infectious Diseases, 2018).
Where two headings read alike, the source gives them in different places.

Key:
Type in all cases: binding
[1] = biological target: T1, HeLa cell extract proteins (Homo sapiens, UniProt P04075)
T1 construct: endogenous in cells; host or cells: HeLa cell extract
T1 sequence (P04075 1-364): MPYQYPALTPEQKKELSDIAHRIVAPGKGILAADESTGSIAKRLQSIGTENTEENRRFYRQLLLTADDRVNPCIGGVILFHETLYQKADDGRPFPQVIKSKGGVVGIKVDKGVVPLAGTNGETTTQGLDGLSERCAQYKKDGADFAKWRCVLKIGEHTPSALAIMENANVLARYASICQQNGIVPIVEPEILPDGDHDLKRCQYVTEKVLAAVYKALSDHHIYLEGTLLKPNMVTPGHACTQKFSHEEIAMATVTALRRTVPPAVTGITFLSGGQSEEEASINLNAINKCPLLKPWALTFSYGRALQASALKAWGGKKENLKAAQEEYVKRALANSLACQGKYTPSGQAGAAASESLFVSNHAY

[2] = biological target: T2, HeLa cell extract proteins (Homo sapiens, UniProt P32119)
T2 construct: endogenous in cells; host or cells: HeLa cell extract
T2 sequence (P32119 1-198): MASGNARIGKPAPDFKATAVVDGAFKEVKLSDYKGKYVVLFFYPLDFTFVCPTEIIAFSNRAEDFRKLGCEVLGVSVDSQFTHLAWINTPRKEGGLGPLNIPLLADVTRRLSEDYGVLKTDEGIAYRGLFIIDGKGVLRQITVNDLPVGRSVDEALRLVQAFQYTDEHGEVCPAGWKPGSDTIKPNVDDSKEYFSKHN

[3] = biological target: T3, HeLa cell extract proteins (Homo sapiens, UniProt P34897)
T3 construct: endogenous in cells; host or cells: HeLa cell extract
T3 sequence (P34897 30-504): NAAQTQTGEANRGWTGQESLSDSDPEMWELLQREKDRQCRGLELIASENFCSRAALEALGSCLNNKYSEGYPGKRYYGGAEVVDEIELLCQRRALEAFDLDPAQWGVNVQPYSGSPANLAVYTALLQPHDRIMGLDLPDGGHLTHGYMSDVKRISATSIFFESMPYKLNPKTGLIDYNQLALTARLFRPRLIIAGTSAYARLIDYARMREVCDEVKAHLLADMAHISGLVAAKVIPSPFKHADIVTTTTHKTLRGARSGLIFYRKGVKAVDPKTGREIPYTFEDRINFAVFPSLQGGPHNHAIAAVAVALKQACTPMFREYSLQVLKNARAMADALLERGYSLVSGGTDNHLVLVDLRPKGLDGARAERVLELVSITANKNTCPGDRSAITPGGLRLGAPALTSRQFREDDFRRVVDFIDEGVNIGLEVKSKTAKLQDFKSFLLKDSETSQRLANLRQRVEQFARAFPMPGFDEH

[4] = biological target: T4, HeLa cell extract proteins (Homo sapiens, UniProt P40763)
T4 construct: endogenous in cells; host or cells: HeLa cell extract

[5] = biological target: T5, HeLa cell extract proteins (Homo sapiens, UniProt Q16891)
T5 construct: endogenous in cells; host or cells: HeLa cell extract
T5 sequence (Q16891 34-758): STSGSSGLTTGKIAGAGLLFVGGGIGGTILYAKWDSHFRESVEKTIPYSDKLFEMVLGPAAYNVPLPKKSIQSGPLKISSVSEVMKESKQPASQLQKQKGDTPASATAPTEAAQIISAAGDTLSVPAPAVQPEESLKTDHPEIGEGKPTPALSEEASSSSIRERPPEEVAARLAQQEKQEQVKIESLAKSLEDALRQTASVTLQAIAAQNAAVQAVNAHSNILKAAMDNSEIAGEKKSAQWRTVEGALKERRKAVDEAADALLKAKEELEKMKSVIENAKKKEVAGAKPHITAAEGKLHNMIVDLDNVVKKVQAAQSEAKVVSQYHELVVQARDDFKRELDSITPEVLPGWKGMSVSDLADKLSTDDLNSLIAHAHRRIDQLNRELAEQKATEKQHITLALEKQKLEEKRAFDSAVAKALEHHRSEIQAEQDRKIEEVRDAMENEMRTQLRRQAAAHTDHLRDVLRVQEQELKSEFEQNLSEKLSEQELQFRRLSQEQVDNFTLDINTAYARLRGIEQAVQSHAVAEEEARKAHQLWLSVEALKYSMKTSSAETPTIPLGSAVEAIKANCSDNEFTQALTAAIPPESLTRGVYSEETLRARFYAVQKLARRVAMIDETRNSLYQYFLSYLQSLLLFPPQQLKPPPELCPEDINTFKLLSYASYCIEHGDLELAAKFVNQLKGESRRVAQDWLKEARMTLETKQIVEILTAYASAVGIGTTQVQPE

[6] = biological target: T6, HeLa cell extract proteins (Homo sapiens, UniProt Q96DG6)
T6 construct: endogenous in cells; host or cells: HeLa cell extract
T6 sequence (Q96DG6 1-245): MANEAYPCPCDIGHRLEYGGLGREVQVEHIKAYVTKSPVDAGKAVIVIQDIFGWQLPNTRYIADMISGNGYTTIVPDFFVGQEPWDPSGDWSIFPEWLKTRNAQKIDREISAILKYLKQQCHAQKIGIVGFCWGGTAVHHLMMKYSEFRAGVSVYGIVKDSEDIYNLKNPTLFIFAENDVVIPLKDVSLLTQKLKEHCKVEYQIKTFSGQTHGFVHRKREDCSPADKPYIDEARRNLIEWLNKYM

[7] = HeLa, protein ALDOA (45 KDA PROTEIN.)

T4 sequence (P40763 whole entry): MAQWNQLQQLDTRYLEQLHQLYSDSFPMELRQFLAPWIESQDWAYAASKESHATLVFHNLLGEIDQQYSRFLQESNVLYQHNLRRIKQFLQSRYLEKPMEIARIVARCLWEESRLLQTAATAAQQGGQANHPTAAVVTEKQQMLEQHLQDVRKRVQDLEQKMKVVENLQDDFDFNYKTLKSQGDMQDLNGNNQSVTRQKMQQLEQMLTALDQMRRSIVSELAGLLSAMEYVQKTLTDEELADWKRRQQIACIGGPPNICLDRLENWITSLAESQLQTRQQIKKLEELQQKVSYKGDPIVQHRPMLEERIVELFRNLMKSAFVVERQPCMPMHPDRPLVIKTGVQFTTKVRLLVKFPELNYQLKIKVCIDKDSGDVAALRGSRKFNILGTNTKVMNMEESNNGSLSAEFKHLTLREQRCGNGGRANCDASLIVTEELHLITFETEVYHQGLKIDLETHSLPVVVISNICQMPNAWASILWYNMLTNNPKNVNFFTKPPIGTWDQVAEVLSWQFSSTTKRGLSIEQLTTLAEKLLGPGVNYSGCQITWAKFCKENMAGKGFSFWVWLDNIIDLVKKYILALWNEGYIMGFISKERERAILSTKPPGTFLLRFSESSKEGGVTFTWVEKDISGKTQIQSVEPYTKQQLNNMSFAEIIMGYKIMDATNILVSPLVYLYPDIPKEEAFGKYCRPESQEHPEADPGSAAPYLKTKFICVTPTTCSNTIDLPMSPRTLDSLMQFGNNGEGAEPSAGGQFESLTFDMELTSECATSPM

SMILES	fold changes relative to vehicle control ([1]; protein ALDOA, HeLa)	fold changes relative to vehicle control ([2]; HeLa, captured protein PRDX2)	fold changes relative to vehicle control ([3]; HeLa, protein SHMT2)	fold changes relative to vehicle control ([4]; protein STAT3, HeLa)	fold changes relative to vehicle control ([5]; HeLa, captured protein IMMT)	fold changes relative to vehicle control ([6]; HeLa, protein CMBL)	fold changes relative to vehicle control [1]	fold changes relative to vehicle control [2]	fold changes relative to vehicle control [3]	fold changes relative to vehicle control [4]	fold changes relative to vehicle control [5]	fold changes relative to vehicle control [6]	fold changes relative to vehicle control [1, 7]	fold changes relative to vehicle control ([2]; protein PRDX2, HeLa)	fold changes relative to vehicle control ([5]; HeLa, protein IMMT)	fold changes relative to vehicle control ([6]; protein CMBL, HeLa)
Nc1nc2c(c(=O)[nH]1)N(C=O)C(CNc1ccc(C(=O)N[C@@H](CCC(=O)O)C(=O)O)cc1)CN2 (stereo partly drawn) [LEU, leucovorin]	0.98	1.05	1.01	0.81	0.97	1.04	–	–	–	–	–	–	–	–	–	–
Nc1nc2[nH]cc(CCc3ccc(C(=O)N[C@@H](CCC(=O)O)C(=O)O)cc3)c2c(=O)[nH]1 [PTX, pemetrexed]	–	–	–	–	–	–	1.21	1.17	1.13	0.73	1.01	0.97	–	–	–	–
CCCCCCOc1ccc(Cc2cnc(N)nc2N)cc1 [compound 1]	–	–	0.8	0.87	–	–	–	–	–	–	–	–	1.38 fold	1.36	0.96	1.08
CCCCCCOc1cccc(Cc2cnc(N)nc2N)c1 [compound 2]	–	–	1.53	1.1	–	–	–	–	–	–	–	–	2.49 fold	2.19	1.14	1.38
Nc1nc2cccc(-c3ccccc3)c2n1Cc1ccc(Cl)c(Cl)c1 [compound 3]	–	–	0.92	1.15	–	–	–	–	–	–	–	–	0.85 fold	0.89	1.05	1.17
NCCOCCOCC(=O)Nc1nc2ncc(CNc3ccc(C(=O)NC(CCC(=O)O)C(=O)O)cc3)nc2c(=O)[nH]1 (stereo not drawn) [compound 6]	1.34	1.18	1.3	0.91	1.03	1.03	–	–	–	–	–	–	–	–	–	–
NCCCNc1ccc(C(=O)NC(CCC(=O)O)C(=O)O)cc1 (stereo not drawn) [compound 7]	1.02	0.89	1.02	1	1.09	1.25	–	–	–	–	–	–	–	–	–	–
